Experimental data as given in patent publication US5817651A, “3-arylcarbonyl-1-(C-attached-N-heteryl)-1H-indoles” (Sanofi, priority 1997, dated 1998).
Counter-ions that a name gives are not always drawn. Like-named read-outs stand apart in the source and are kept apart here.

Legend:
[1] = system: acetylcholine-induced abdominal constriction; test: acetylcholine-induced abdominal constriction test (ACH); format: in vivo; design: key to ACH remark (Depr. = depressant): The abbreviations IA and Depr. represent, respectively, inactive and depressant; The abbreviations IA and Depr. represent, respectively, inactive and depressant; conditions: mice; for ED50 / inhibition in vivo at 100 mg/kg: Mus musculus; for inhibition in vivo at 100 mg/kg: dose level 100, read-out: ACH percent inhibition at dose 100
From the text: J. Pharmacol. Chemotherap. 32, 295 (1968); a modification of the anti-bradykinin test, which is also a primary analgesic screening procedure, described by Berkowitz et al., J. Pharmacol. Exptl. Therap. 177, 500-508 (1971), Blane et al., J. Pharm. Pharmacol. 19, 367-373 (1967), Botha et al., Eur. J. Pharmacol. 6, 312-321 (1969) and Deffenu et al., J. Pharm. Pharmacol. 18, 135 (1966); and the Randall-Selitto analgesic test described by Randall and Selitto, Arch. Int. Pharmacodyn., 111, 409-419 (1957).
Data in the developing adjuvant arthritis (AA) and plasma fibronectin (FN) assays are expressed as percent inhibition, i.e. inhibition of non-injected paw inflammation (NIP) and injected paw (RPV) and lowering of plasma fibronectin, the asterisks * and ** indicating statistical significance at the p<0.01 and p<0.05 levels, respectively. […] Non-statistically significant results are recorded as "------ ". In the acetylcholine-induced abdominal constriction test, the test compounds were administered either as suspensions in gum tragacanth (GT) or as aqueous solutions prepared by addition of just sufficient dilute aqueous methanesulfonic acid (MS) or dilute aqueous lactic acid (LA) to dissolve the compound. The compounds are identified by the example number above where their preparations are described. All data in the anti-bradykinin, rat writhing and Randall-Selitto tests were obtained on oral administration.

[2] = system: mouse vasa deferentia preparation; test: mouse vas deferens test (MVD); format: cell-based; conditions: inhibition of contractions, in vitro, active at 5.0 μM or less
From the text: It has been shown previously that smoking marijuana reduces intraocular pressure in man [Helper and Frank, Marijuana Smoking and Intraocular Pressure., J. Am. Med. Assoc. 217, 1392 (1971)]. Topical application or systemic injection of delta-9 tetrahydrocannabinol, a principal active ingredient in marijuana, also reduces intraocular pressure [Purnell and Gregg, delta-9 Tetrahydrocannabinol, Euphoria and Intraocular Pressure in Man., Ann. Opth. 7, 921-923 (1975); Green and Pederson, Effect of delta-9 Tetrahydrocannabinol on Aqueous Dynamics and Ciliary Body Permeability in the Rabbit Eye., Exptl. Eye Research 15, 499-507 (1973); Colasanti, Craig and Allara, Intraocular Pressure, Ocular Toxicity and Neurotoxicity after Administration of Cannabinol or Cannibigerol, Exptl. Eye Research 39, 252-259 (1984)]. Similarly, synthetic cannabinoids also reduce intraocular pressure [Green, Symunds, Oliver and Elijah, Intraocular Pressure Following Systemic Administration of Cannabinoids., Curr. Eye Research 2, 247-253 (1982); Tiedeman, Shields, Weber, Crow, Coccetto, Harris and Howes, Opthalmology, 88, 270-277 (1981); Colasanti et al., supra]. Cannabinoid receptor binding sites can be defined as those to which radio-labelled 4-(1,1-dimethylheptyl)-2,3'-dihydroxy-6'alpha-(3-hydroxypropyl)-1', 2', 3', 4', 5', 6'-hexahydrobiphenyl (CP 55940) binds in a specific and saturable manner and the binding sites are heterogeneously distributed in the brain [Devane, Dysarz, Johnson, Melvin and Howlett, Determination and Characterization of a Cannabinoid Receptor in Rat Brain, Molecular Pharm. 34, 605-613 (1988)]. Natural and synthetic cannabinoids and certain of the compounds of the present invention, as more particularly described above, bind to CP 55940 binding sites. […] It is believed that agonist activity at the cannabinoid receptor mediates the anti-glaucoma actions of cannabinoids, and that agonist activity at this receptor correlates with ocular pressure lowering actions in man. Accordingly the cannabinoid receptor agonist activity of the compounds of the present invention indicate their usefulness in reducing ocular pressure.

[3] = system: acetic acid-induced writhing; test: acetic acid-induced writhing assay in the rat (RW); format: in vivo; conditions: Rattus norvegicus, po, oral administration
Experimental: (§1) Data in the developing adjuvant arthritis (AA) and plasma fibronectin (FN) assays are expressed as percent inhibition, i.e. inhibition of non-injected paw inflammation (NIP) and injected paw (RPV) and lowering of plasma fibronectin, the asterisks * and ** indicating statistical significance at the p<0.01 and p<0.05 levels, respectively. Compounds are considered active at p<0.05 level. Non-statistically significant results are recorded as "------ ". In the acetylcholine-induced abdominal constriction test, the test compounds were administered either as suspensions in gum tragacanth (GT) or as aqueous solutions prepared by addition of just sufficient dilute aqueous methanesulfonic acid (MS) or dilute aqueous lactic acid (LA) to dissolve the compound. The compounds are identified by the example number above where their preparations are described. All data in the anti-bradykinin, rat writhing and Randall-Selitto tests were obtained on oral administration.

[4] = system: adjuvant induced arthritis; test: developing adjuvant arthritis (AA) assay; format: in vivo; conditions: arthritic rats; printed * = p<0.01, ** = p<0.05
Experimental: Antirheumatic and anti-inflammatory activities of the compounds of the invention were determined using the developing adjuvant arthritis assay in rats and the plasma fibronectin assay in arthritic rats. The developing adjuvant arthritis assay was used in conjunction with the plasma fibronectin assay as a primary screening method in the evaluation of compounds for potential use as disease modifying anti-rheumatic drugs. The procedure used to induce arthritis in rats is a modification of the methods published by Pearson, J. Chron. Dis. 16, 863-874 (1973) and by Glenn et al., Amer. J. Vet. Res. 1180-1193 (1965). Adjuvant induced arthritis bears many of the traits of rheumatoid arthritis. It is a chronic, progressive, deforming arthritis of the peripheral joints, with a primary mononuclear cell response consisting of bone and joint space invasion by pannus. In order to detect disease modifying anti-rheumatic drug activity, drug treatment is started before the disease has become irrevocably established. Since such drugs are not designed to be administered prophylactically, drug treatment of adjuvant arthritis is initiated at a time when the disease is developing but is not yet irreversible. Animals develop significant systemic arthritic disease which can be measured by swelling of the non-injected rear paw (NIP) 15 to 20 days following an initial injection on day 1 of complete Freund's adjuvant into the right hindfoot paw.
as §1

[5] = Table 9, Examples, no route marked in the cell, read-out: ACH ED50
[6] = iv, Table 9, iv, read-out: ACH ED50 (iv)

Compound | ED50 [1, 5] [mg/kg] | IC50 ([2]; Mus musculus) [nM] | also measured
COc1ccc(C(=O)c2c(C)n(C[C@@H]3CC[C@H](C)N3C)c3ccccc23)cc1 (relative stereo) [Example 1Z] | 14 | 48 | ED50 [1, 6]: 3 mg/kg
CN1CCN(C)C(Cn2cc(C(=O)c3cccc4ccccc34)c3ccccc32)C1 (stereo not drawn) [3G (base)] | – | 15 | –
CN1CC[N+](C)(C)CC1Cn1cc(C(=O)c2cccc3ccccc23)c2ccccc21 (stereo not drawn) [3G (quaternary)] | – | 156 | –
COc1ccc(C(=O)c2cn(C(C)C3CCCN3C)c3ccccc23)cc1 (stereo not drawn) [Example 1AA] | 23 | – | ED50 [1, 6]: 5 mg/kg; IC50 [2]: 127 nM; ED50 [3]: 20 mg/kg
CC(C1CCCN1C)n1cc(C(=O)c2ccccc2F)c2ccccc21 (stereo not drawn) [Example 1AC] | – | 111 | inhibition in vivo at 100 mg/kg ([1]; Table 9): 40%
COc1ccc(C(=O)c2c(C)n(C(C)C3CCCN3C)c3ccccc23)cc1 (stereo not drawn) [Example 1AF] | 19 | 542 | –
COc1ccc(C(=O)c2c(C)n(CC3CCC(C)(C)N3C)c3ccccc23)cc1 (stereo not drawn) [Example 1AH] | – | 330 | –
Cc1c(C(=O)c2cccc3ccccc23)c2ccccc2n1CC1CN(C)CCO1 (stereo not drawn) [Example 1G] | – | 50 | ED50 [1, 6]: 6 mg/kg; inhibition in vivo at 100 mg/kg ([1]; Table 9): 10%
CN1CCCC(Cn2cc(C(=O)c3cccc4ccccc34)c3ccccc32)C1 (stereo not drawn) [Example 1P] | 144 | 28 | NIP: percent inhibition of non-injected paw inflammation [4]: 38%; RPV: percent inhibition of injected paw [4]: 43%
Cc1c(C(=O)c2cccc3ccccc23)c2ccccc2n1C1CCCCN(C)C1 (stereo not drawn) [Example 2AB] | – | 13 | inhibition in vivo at 100 mg/kg ([1]; Table 9): 30%
CN1CCCCC1Cn1cc(C(=O)c2ccccc2F)c2ccccc21 (stereo not drawn) [Example 2AC] | 10 | 3 | ACH remark (Depr. = depressant) ([1]; Table 9, remark beside the ED50): Depr.
O=C(c1cccc2ccccc12)c1cn(CC2CCCCN2Cc2ccccc2)c2ccccc12 (stereo not drawn) [Example 2AM] | – | 51 | –
O=C(c1cccc2ccccc12)c1cn(C2CCCCN(Cc3ccccc3)C2)c2ccccc12 (stereo not drawn) [Example 2AO] | – | 480 | –
CN1CCCC1Cn1cc(C(=O)c2ccccc2F)c2ccccc21 (stereo not drawn) [Example 2M] | 53 | 39 | –
Cc1c(C(=O)c2cccc3ccccc23)c2ccccc2n1CC1CCCN1C (stereo not drawn) [Example 2Q] | – | 2 | inhibition in vivo at 100 mg/kg ([1]; Table 9): 20%
CN1CCCCC(n2cc(C(=O)c3cccc4ccccc34)c3ccccc32)C1 (stereo not drawn) [Example 2Z] | – | 82 | ACH percent inhibition at dose 30 (iv) ([1]; Table 9, dose level 30, iv): 80%; NIP: percent inhibition of non-injected paw inflammation [4]: 65%
O=C(c1cccc2ccccc12)c1cn(CC2COCCN2Cc2ccccc2)c2ccccc12 (stereo not drawn) [Example 3F] | – | 224 | ED50 [1, 6]: 2.2 mg/kg
CC(C1CCCN(C)C1)n1cc(C(=O)c2ccccc2F)c2ccccc21 (stereo not drawn) [Example 4F] | 24 | – | NIP: percent inhibition of non-injected paw inflammation [4]: 45%; RPV: percent inhibition of injected paw [4]: 27%; ED50 [3]: 6 mg/kg
O=C(c1cccc2ccccc12)c1cn(CC2CCCCN2)c2ccccc12 (stereo not drawn) [Example 4I] | – | 0.3 | ACH percent inhibition at dose 30 ([1]; Table 9, dose level 30): 30%
Cc1c(C(=O)c2ccc([S+](C)[O-])cc2)c2ccccc2n1CC1CCCN(C)C1.Cl (stereo not drawn) [Example 6A, 1-[(1-methyl-3-piperidinyl)methyl]-2-methyl-3-(4-methylsulfinylbenzoyl)-1H-indole hydrochloride] | 9 | – | NIP: percent inhibition of non-injected paw inflammation [4]: 93%; RPV: percent inhibition of injected paw [4]: 81%; ED50 [3]: 5 mg/kg
Cc1c(C(=O)c2ccccc2F)c2ccccc2n1CC1CCC(C)N1 (stereo not drawn) [Example 8E] | – | 160 | –
O=C(c1cccc(F)c1)c1cn(CC2CCCN2)c2ccccc12 (stereo not drawn) [Example 8F] | – | 325 | –
O=C(c1cccc2ccccc12)c1cn(CC2COCCN2)c2ccccc12 (stereo not drawn) [Example 8G] | – | 4.7 | ACH percent inhibition at dose 30 ([1]; Table 9, dose level 30): 100%
COc1ccc(C(=O)c2c(C)n(C3CN(C)C3)c3ccccc23)cc1.O=C(O)/C=C\C(=O)O [Example 10A, 2-methyl-3-(4-methoxybenzoyl)-1-(1-methyl-3-azetidinyl)-1H-indole maleate] | 40 | 495 | –
CN1CCOCC1Cn1cc(C(=O)c2cccc3ccccc23)c2ccccc21.Cl (stereo not drawn) [Example 10C, 3-(1-naphthylcarbonyl)-1-[(4-methyl-3-morpholinyl)methyl]-1H-indole hydrochloride] | – | 0.4 | ACH percent inhibition at dose 30 ([1]; Table 9, dose level 30): 50%
Cc1c(C(=O)c2ccc(O)cc2)c2ccccc2n1CC1CCCN1C (stereo not drawn) [Example 11A, 2-methyl-3-(4-hydroxybenzoyl)-1-[(1-methyl-2-pyrrolidinyl)methyl]-1H-indole hydrochloride] | – | 284 | –
Cc1c(C(=O)c2ccc(O)cc2)c2ccccc2n1CC1CCC(C)N1C (stereo not drawn) [Example 11B, 2-methyl-3-(4-hydroxybenzoyl)-1-[(1,5-dimethyl-2-pyrrolidinyl)methyl]-1H-indole hydrochloride] | – | 217 | –
